# Experimental data reported in patent publication US7399639B2, “Sensors, and methods of making and using the same” (Massachusetts Institute of Technology, priority 2003, dated 2008).
# “And” between values parts separate entries of the source, which are not always exact repeats. Equal entries are not always repeated. Where two headings read alike, the source gives them in different places.
# Legend:
# [1] = system: HeLa cells; experiment: Cell permeability studies using Zn-pyrithione, fluorescence microscopy; type: cell-based; conditions: 5 μM ligand 30 min RT, 10 μM Zn^2+-pyrithione
# Experimental: FIG. 10 depicts phase contrast (A) and fluorescence microscopy (B) visualization of HeLa cells treated with the ligands of Formula 101, 103, and 31 in the absence of zinc. Cells were bathed in 5 μM ligand for 30 min at RT, followed by untreated PBS for 10 min.
# FIG. 11 depicts phase contrast (A) and fluorescence microscopy (B) visualization of HeLa cells treated with the ligands of Formula 101, 103, and 31 in the presence of zinc. Cells were bathed in 5 μM ligand for 30 min at RT, followed by 10 μM Zn^2+-pyrithione.
# FIG. 12 depicts phase contrast (A) and fluorescence microscopy (B) visualization of HeLa cells treated with the ligands of Formula 100, 102, and 31 in the absence of zinc. Cells were bathed in 5 μM ligand for 30 min at RT, followed by untreated PBS for 10 min.
# FIG. 13 depicts phase contrast (A) and fluorescence microscopy (B) visualization of HeLa cells treated with the ligands of Formula 100, 102, and 31 in the presence of zinc. Cells were bathed in 5 μM sensor for 30 min at RT, followed by 10 μM Zn^2+-pyrithione.
# [2] = Quantum yields / fluorescence emission against fluorescein standard; type: physicochemical; conditions: for λmax (Em, nm): HEPES 50 mM, pH 7.5, KCl 100 mM; for Φ: fluorescein standard
# Experimental: (§1) The above results were obtained using the following experimental methods. For all fluorescence experiments, the glassware was washed sequentially with 20% HNO3, deionized water, and ethanol before use. Purified water (resistivity […]) was obtained from a Millipore Milli-Q water purification system. Fluorophore stock solutions in DMSO were made up to concentrations of 1 mM and kept at 4° C. in 100-500 μL aliquots. Portions were thawed and diluted to the required concentrations immediately prior to each experiment. Fluorescence and absorption data were acquired in HEPES buffer (50 mM, pH 7.5, KCl 100 mM) except where otherwise noted. Solutions were transferred to clean, dry propylene containers for storage, and filtered through 0.25 μm syringe filters before data acquisition. Fluorescence spectra were measured from 475 nm to 650 nm. All measurements were performed in triplicate.
# Quantum Yields. Quantum yields were calculated by recording UV-vis spectra of the fluorophore under study and a 1 μM fluorescein standard in 0.1 N NaOH to determine the wavelength where sample and fluorescein absorption were equal. The fluorescence spectrum of each was then recorded, exciting at the wavelength determined by uv-vis spectra comparison. The integrated emission of the sample was normalized to the fluorescein standard and multiplied by the standard quantum yield of 0.95. Brannon, J. H.; Magde, D. J. Phys. Chem. 1978, 82, 705-709.
# [3] = Extinction coefficients / absorption spectra in HEPES buffer; type: physicochemical; conditions: for λmax (Abs, nm): HEPES 50 mM, pH 7.5, KCl 100 mM
# Experimental: as §1
# Extinction Coefficients. A 2 mL portion of HEPES buffer was titrated with 2 μL aliquots of 1 mM fluorophore stock solution and the absorption measured at each concentration. The absorbance at the maximum was plotted as a function of concentration, and the slope was taken as the extinction coefficient. The procedure was repeated using 1.9 mL portions of HEPES buffer containing 100 μL aliquots of 10 mM ZnCl2 solution.
# [4] = metal-free; reported elsewhere; cited from earlier work
# [5] = reported elsewhere; cited from earlier work
# [6] = Metal ion selectivity measurements of Zinpyr dyes; conditions: 1 μM Zinpyr, divalent first-row transition metals and Cd(II)
# Experimental: Metal Ion Selectivity Measurements. The metal ion selectivity of Zinpyr-5 and Zinpyr-6 for a number of divalent first-row transition metals, in addition to cadmium, is investigated using fluorescence spectroscopy. Aqueous metal ion solutions for Ca(II), Mg(II), Mn(II), Co(II), Ni(II) and Cd(II) are prepared from the chloride salts and Millipore water. The Cu(II) solution are prepared from copper sulfate and Fe(II) solutions are prepared immediately before use with ferrous ammonium sulfate and Millipore water that was thoroughly purged with Ar. In a typical experiment, 15 μL of a ˜10 mM metal solution is added to a 1 μM Zinpyr solution (3 mL) and the emission spectra is recorded with excitation at 498 nm (Zinpyr-5) or 500 nm (Zinpyr-6). […] of 10 mM ZnCl2 is then added and the emission spectra is obtained. The spectra are integrated from 505-650 nm (Zinpyr-5) or 450-650 nm (Zinpyr-6) and normalized.
# [7] = Quantum yield and emission measurements of Zinpyr dyes; type: physicochemical
# Experimental: (§2) General Spectroscopic Methods. PIPES (piperazine-N,N′-bis(2-ethanesulfonic acid) from Calbiochem, KCl (99.997%), and ZnCl2 (99.999%) are purchased and used as received. All experiments for this Example Eight, with the exception of the pKa experiment, are conducted under stimulated physiological conditions using 50 mM PIPES, 100 mM KCl adjusted to pH 7 via drop-wise addition of KOH. Millipore water is used for all aqueous solutions, which are filtered through a 0.2 μm cellulose filter prior to use (buffered dye solutions should not be put through the filters because the dyes will get stuck). An Orion glass electrode, which is calibrated prior to each use, is used to determine solution pH. The accuracy of each micropipette is verified prior to use. Zinc solutions are prepared from 100 mM and 10 mM stock solutions in water (pH 5). The concentrations of the stock solutions is verified by spectrophotometric titration with 2,2′:6′,2″-terpyridine, which is was performed a minimum of three times per solution. In a typical titration, 0.5 μL aliquots of a 10 mM (nominal) Zn(II) solution in water is added to a 10 μM solution of terpyridine in 50 mM PIPES, 100 mM KCl, pH 7 prepared from a 100 mM stock solution in DMSO. The equivalence point at 321 nm and at 291 nm is determined and used to calculate the Zn(II) concentration. Stock solutions of Zinpyr-5 (0.76 mM) and Zinpyr-6 (0.41 mM) in DMSO are prepared, stored at −25° C., and thawed in the dark immediately prior to use. All spectral data are manipulated with the KaleidaGraph software package.
# Fluorescence Spectroscopy. Emission spectra are obtained using a Hitachi F-3010 spectrofluorimeter linked to a Pentium PC running the SpectraCalc software package. A 150 W Xe lamp (Ushio Inc.) operating at a current of 5 A provides the excitation. A rhodamine quantum counter is used to normalize the spectra for excitation intensity, and manufacturer-supplied correction curves are used to normalize the emission spectra. Manufacturer supplied photomultiplier curves are used to correct for emission intensity. A circulating water bath is used during all experiments to regulate the temperature at 25.0° C.±0.1° C. All spectra are obtained using 3 nm slit widths and a 240 nm/min scan speed, and all samples are contained in a 1 cm×1 cm quartz cuvette with a 3.5 mL volume. All measurements are made in triplicate, with the exception of the Zinpyr-6 pKa titration, and on different days to assure the authenticity of the results.
# Quantum Yield Measurements. The quantum yields of Zinpyr-5 and Zinpyr-6 are determined using a solution of fluorescein in 0.1 N NaOH (φ=0.95) as a reference. In a typical experiment, a 6 mL solution of 1 μM Zinpyr is prepared. For metal-free studies, 6 μL of 100 mM K4EDTA is added to chelate any adventitious metal ions. To determine the quantum efficiencies of the metal-bound dyes, either 2 μL (Zinpyr-5) or 6 μL (Zinpyr-6) of a 100 mM ZnCl2 stock solution is added to a 1 μM Zinpyr solution. The concentration of the reference solution is adjusted to match the excitation spectra of the Zinpyr dye, and the appropriate excitation wavelength is determined from where the reference and probe excitation spectra intersect. Excitation is provided at 497 nm (Zinpyr-5 and Zinpyr-6, metal-free), 491 nm (Zinpyr-5, metal-bound), or 493 (Zinpyr-6, metal-bound). Emission spectra are integrated from 450-650 nm and the quantum yields were calculated using the standard equation. Godwin, H. A.; Berg, J. M. J. Am. Chem. Soc. 1996, 118, 6514-6515.
# [8] = Zn(II) binding studies (fluorescence spectroscopy), dual-metal buffering system, Zinpyr dyes; conditions: titration with dual-metal buffering system, 0.17 nM to 25 nM free Zn(II)
# Experimental: General Spectroscopic Methods. PIPES (piperazine-N,N′-bis(2-ethanesulfonic acid) from Calbiochem, KCl (99.997%), and ZnCl2 (99.999%) are purchased and used as received. All experiments for this Example Eight, with the exception of the pKa experiment, are conducted under stimulated physiological conditions using 50 mM PIPES, 100 mM KCl adjusted to pH 7 via drop-wise addition of KOH. Millipore water is used for all aqueous solutions, which are filtered through a 0.2 μm cellulose filter prior to use (buffered dye solutions should not be put through the filters because the dyes will get stuck). An Orion glass electrode, which is calibrated prior to each use, is used to determine solution pH. The accuracy of each micropipette is verified prior to use. Zinc solutions are prepared from 100 mM and 10 mM stock solutions in water (pH 5). […] The equivalence point at 321 nm and at 291 nm is determined and used to calculate the Zn(II) concentration. […]
# Zn(II) Binding Studies (Fluorescence Spectroscopy). The dissociation constants, Kd, for Zn(II) binding were determined using a dual-metal buffering system, which affords concentrations of free Zn(II) in the nM range. […] The response was quantified by integrating the emission intensity from 505-650 nm and normalizing. […]
# The binding affinities for Zinpyr-5 and Zinpyr-6 were determined using the dual-metal buffering system previously described. […]
# [9] = Protonation constants that affect fluorescence of Zinpyr dyes; type: physicochemical; conditions: for pKa: aqueous solution of 100 mM KCl, 10 mM KOH, Zinpyr-6 value estimated from preliminary results
# Experimental: Studies of Protonation Constants that Effect Fluorescence. The apparent protonation constants that affect fluorescence are determined by plotting the integrated emission intensity versus pH from ˜12.5 to 2. In a typical experiment, a 30 mL solution of 1 μM Zinpyr in 100 mM KCl, 10 mM KOH is adjusted to pH 12.5 by drop-wise addition of KOH. Aliquots of 6 N, 2 N, 1 N, 0.5 N, 0.5 N, 0.1 N, and 0.01 N HCl are added to achieve pH changes of approximately […], and the emission spectrum is gathered at each interval. The overall volume change for each experiment is monitored so as not to exceed ˜3%. Excitation is provided at 498 nm for Zinpyr-5 and at 500 nm for Zinpyr-6. Data is integrated from 505 nm to 650 nm, normalized and plotted against pH. The data were fit to the non-linear expression previously described. Godwin, H. A.; Berg, J. M. J. Am. Chem. Soc. 1996, 118, 6514-6515.
# [10] = UV-visible spectroscopy of Zinpyr dyes (excitation maxima, molar absorptivity); type: physicochemical; conditions: for ε: at excitation maximum
# Experimental: as §2
# UV-Visible Spectroscopy. Excitation spectra are obtained using a Cary IE scanning spectrophotometer controlled by a Pentium PC running the manufacturer supplied software program. A circulating water bath is used during all acquisitions to maintain the temperature at 25.0° C.±0.1° C. All data are collected using a 600 nm/min scan speed and a 1 nm data interval. […] Molar absorptivity values are determined from a minimum of three titrations over a concentration range of 10 μM to 1 μM. […]
# [11] = Affinity of compound 30 for Zn2+; type: binding
# [12] = metal-free, 50 mM PIPES, 100 mM KCl, pH 7
structure (smiles),measurement,setting,value
O=C(O)c1ccc2c(c1)C(=O)OC21c2cc(Cl)c(O)c(CN(Cc3ccccn3)Cc3ccccn3)c2Oc2c1cc(Cl)c(O)c2CN(Cc1ccccn1)Cc1ccccn1 [Formula 101],uptake into cells,[1],not taken up by the cell
same,Brightness,[2]; +Zn^2+ complex,5.5 × 10^4
same,"λmax (Em, nm)",[2]; +Zn^2+ complex,532 nm
same,Φ,[2]; +Zn^2+ complex,0.62
same,Brightness,[2]; free ligand,1.4 × 10^4
same,"λmax (Em, nm)",[2]; free ligand,536 nm
same,Φ,[2]; free ligand,0.17
same,εmax,[3]; +Zn^2+ complex,88000 M⁻¹ cm⁻¹
same,"λmax (Abs, nm)",[3]; +Zn^2+ complex,509 nm
same,εmax,[3]; free ligand,81000 M⁻¹ cm⁻¹
same,"λmax (Abs, nm)",[3]; free ligand,520 nm
COc1ccc(NCc2c(O)ccc3c(-c4ccccc4C(=O)O)c4cc(Cl)c(=O)cc-4oc23)c(CN(Cc2ccccn2)Cc2ccccn2)c1 [Zinpyr-3],quantum efficiency,[4],0.04
same,fluorescence change upon addition of Zn(II),[5],negligible
O=C(O)c1ccccc1-c1c2cc(Cl)c(=O)cc-2oc2c(CNc3ccc(Cl)cc3CN(Cc3ccccn3)Cc3ccccn3)c(O)ccc12 [Zinpyr-6],metal ion selectivity,[6],Zn(II) and Cd(II) selective
same,increase in brightness upon Zn(II) coordination,[7],3.8 fold and 3.7 fold
same,increase in quantum efficiency upon addition of excess Zn(II),[7],3.4 fold
same,brightness (φ×ε),[7]; Zn(II) bound,"33,000 M^−1 cm^−1"
same,emission maximum,[7]; Zn(II) bound,515 nm
same,quantum efficiency,[7]; Zn(II) bound,0.34
same,brightness (φ×ε),[7]; metal-free,"8,900 M^−1 cm^−1"
same,emission maximum,[7]; [12],519 nm
same,quantum efficiency,[7]; [12],0.10
same,increase in integrated emission,[8],2.5- to 3 fold and ~3 fold
same,pH at which maximum emission is reached,[9]; Zinpyr-6 data preliminary,~5
same,pKa,"[9]; read-out: apparent pKa, first protonation event (fluorescence enhancement; tertiary amine)",~10
same,pKa,"[9]; read-out: apparent pKa, second protonation event (fluorescence enhancement; aniline nitrogen)",~6.4
same,pKa,"[9]; read-out: apparent pKa, third protonation event (fluorescence quenching)",~4.6
same,excitation maximum,[10]; Zn(II) bound,495 nm
same,ε,[10]; Zn(II) bound,"98,000 M^−1 cm^−1"
same,ε,[10]; metal-free,"88,600 M^−1 cm^−1"
"O=C(O)c1ccccc1-c1c2cc(Cl)c(=O)cc-2oc2cc(N(Cc3ccccn3)Cc3ccccn3)ccc12 [compound 30, 9-(o-Carboxyphenyl)-2-chloro-6-[bis(2-pyridylmethyl)amino]-3-xanthanone]",affinity for Zn^2+,[11],weak
